Experimental data taken from patent US20260365682A1, “MODULATORS OF TNF-ALPHA ACTIVITY” (Forward Therapeutics, Inc., priority 2022, published 2026).
Like-named read-outs stand apart in the source and are kept apart here.

Target: T1, TNF-α (Homo sapiens, UniProt P01375)
T1 construct: purchased R&D 210-TA-020/CF
Test: TNF-α Induced HEK Blue Cellular Assay (secreted alkaline phosphatase expression, QUANTI-Blue)
Format: cell-based
Details: HEK Blue TNFα reporter cells, TNF-α 100 μg/ml, 24 hrs at 37° C., inhibition of secreted alkaline phosphatase
Outline: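 Compound was serially diluted from […] to 0.5 nM final, then incubated with 10,000 HEK Blue TNFα reporter cells per well and […] TNF-α for 24 h at 37° C. SEAP output was read by QUANTI-Blue absorbance at 620 nm. Inhibition was background-corrected against DMSO controls with and without stimulation, and IC50 was fitted with a 4-parameter logistic equation.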

T1 sequence (P01375 77-233 limits assumed): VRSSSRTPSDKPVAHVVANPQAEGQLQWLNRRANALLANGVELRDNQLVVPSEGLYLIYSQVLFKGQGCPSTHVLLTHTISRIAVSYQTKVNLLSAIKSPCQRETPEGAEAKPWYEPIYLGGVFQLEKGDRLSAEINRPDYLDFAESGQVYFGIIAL

SMILES | IC50 (IC50 value) | IC50 (read-out: IC50 value)
[2H]C([2H])([2H])N1C(=O)c2cccc(OC(F)F)c2[C@H]2C[C@@H]1c1nc3ccc(C#CCCC)cc3n12 [Example 88, (7R,14R)-1-(difluoromethoxy)-6-(methyl-d3)-11-(pent-1-yn-1-yl)-6,7-dihydro-7,14-methanobenzo[f]benzo[4,5]imidazo[1,2-a][1,4]diazocin-5(14H)-one] | < 100 nM | –
[2H]C([2H])([2H])N1C(=O)c2cccc(OC(F)F)c2[C@H]2C[C@@H]1c1nc3ccc(C#C[C@H]4CCCN4)cc3n12 [Example 58, (7R,14R)-1-(difluoromethoxy)-6-(methyl-d3)-11-(((R)-pyrrolidin-2-yl)ethynyl)-6,7-dihydro-7,14-methanobenzo[f]benzo[4,5]imidazo[1,2-a][1,4]diazocin-5(14H)-one] | – | 10000 to 30000 nM
[2H]C([2H])([2H])N1C(=O)c2cccc(OC(F)F)c2[C@H]2C[C@@H]1c1nc3ccc(C#C[C@@H]4CCCN4)cc3n12 [Example 59, (7R,14R)-1-(difluoromethoxy)-6-(methyl-d3)-11-(((S)-pyrrolidin-2-yl)ethynyl)-6,7-dihydro-7,14-methanobenzo[f]benzo[4,5]imidazo[1,2-a][1,4]diazocin-5(14H)-one] | – | 10000 to 30000 nM
[2H]C([2H])([2H])N1C(=O)c2cccc(OC(F)F)c2[C@H]2C[C@@H]1c1nc3ccc(C#CC4(C)CCN(C(=O)C(C)(C)C)C4)cc3n12 (stereo partly drawn) [Example 190, (7R,14R)-1-(difluoromethoxy)-6-(methyl-d3)-11-((3-methyl-1-pivaloylpyrrolidin-3-yl)ethynyl)-6,7-dihydro-7,14-methanobenzo[f]benzo[4,5]imidazo[1,2-a][1,4]diazocin-5(14H)-one] | – | 100 to 1000 nM
[2H]C([2H])([2H])N1C(=O)c2cccc(OC(F)F)c2[C@H]2C[C@@H]1c1nc3ccc(C#CCOC4CCN(C)CC4)cc3n12 [Example 115, (7R,14R)-1-(difluoromethoxy)-6-(methyl-d3)-11-(3-((1-methylpiperidin-4-yl)oxy)prop-1-yn-1-yl)-6,7-dihydro-7,14-methanobenzo[f]benzo[4,5]imidazo[1,2-a][1,4]diazocin-5(14H)-one] | – | < 100 nM
[2H]C([2H])([2H])N1C(=O)c2cccc(OC(F)F)c2[C@H]2C[C@@H]1c1nc3ccc(C#C[C@H](C)CO)cc3n12 [Example 129, (7R,14R)-1-(difluoromethoxy)-11-((S)-4-hydroxy-3-methylbut-1-yn-1-yl)-6-(methyl-d3)-6,7-dihydro-7,14-methanobenzo[f]benzo[4,5]imidazo[1,2-a][1,4]diazocin-5(14H)-one] | – | < 100 nM
[2H]C([2H])([2H])N1C(=O)c2cccc(OC(F)F)c2[C@H]2C[C@@H]1c1nc3ccc(C#CC4CCN(C(=O)C5(O)CC5)C4)cc3n12 (stereo partly drawn) [Example 203, (7R,14R)-1-(difluoromethoxy)-11-((1-(1-hydroxycyclopropane-1-carbonyl)pyrrolidin-3-yl)ethynyl)-6-(methyl-d3)-6,7-dihydro-7,14-methanobenzo[f]benzo[4,5]imidazo[1,2-a][1,4]diazocin-5(14H)-one] | – | < 100 nM
[2H]C([2H])([2H])N1C(=O)c2cccc(OC(F)F)c2[C@H]2C[C@@H]1c1nc3ccc(C#Cc4nnc(NC(=O)OC(C)(C)C)s4)cc3n12 [Example 261, tert-butyl (5-(((7R,14R)-1-(difluoromethoxy)-6-(methyl-d3)-5-oxo-5,6,7,14-tetrahydro-7,14-methanobenzo[f]benzo[4,5]imidazo[1,2-a][1,4]diazocin-11-yl)ethynyl)-1,3,4-thiadiazol-2-yl)carbamate] | – | < 100 nM
[2H]C([2H])([2H])N1C(=O)c2cccc(OC(F)F)c2[C@H]2C[C@@H]1c1nc3ccc(C#CC#N)cc3n12 [Example 262, 3-((7R,14R)-1-(difluoromethoxy)-6-(methyl-d3)-5-oxo-5,6,7,14-tetrahydro-7,14-methanobenzo[f]benzo[4,5]imidazo[1,2-a][1,4]diazocin-11-yl)propiolonitrile] | – | < 100 nM
[2H]C([2H])([2H])N1C(=O)c2cccc(OC(F)F)c2[C@H]2C[C@@H]1c1nc3ccc(C#CC4CCN(C)CC4)cc3n12 [Example 57, (7R,14R)-1-(difluoromethoxy)-6-(methyl-d3)-11-((1-methylpiperidin-4-yl)ethynyl)-6,7-dihydro-7,14-methanobenzo[f]benzo[4,5]imidazo[1,2-a][1,4]diazocin-5(14H)-one] | – | 100 to 1000 nM
[2H]C([2H])([2H])N1C(=O)c2cccc(OC(F)F)c2[C@H]2C[C@@H]1c1nc3ccc(C#CC4CCCO4)cc3n12 (stereo partly drawn) [Example 53, (7R,14R)-1-(difluoromethoxy)-6-(methyl-d3)-11-((tetrahydrofuran-2-yl)ethynyl)-6,7-dihydro-7,14-methanobenzo[f]benzo[4,5]imidazo[1,2-a][1,4]diazocin-5(14H)-one] | – | < 100 nM
[2H]C([2H])([2H])N1C(=O)c2cccc(OC(F)F)c2[C@H]2C[C@@H]1c1nc3ccc(C#CC4(C)CNC4)cc3n12 [Example 158, (7R,14R)-1-(difluoromethoxy)-6-(methyl-d3)-11-((3-methylazetidin-3-yl)ethynyl)-6,7-dihydro-7,14-methanobenzo[f]benzo[4,5]imidazo[1,2-a][1,4]diazocin-5(14H)-one] | – | < 100 nM
[2H]C([2H])([2H])N1C(=O)c2cccc(OC(F)F)c2[C@H]2C[C@@H]1c1nc3ccc(C#CC4(C)CN(CCO)C4)cc3n12 [Example 164, (7R,14R)-1-(difluoromethoxy)-11-((1-(2-hydroxyethyl)-3-methylazetidin-3-yl)ethynyl)-6-(methyl-d3)-6,7-dihydro-7,14-methanobenzo[f]benzo[4,5]imidazo[1,2-a][1,4]diazocin-5(14H)-one] | – | 100 to 1000 nM
[2H]C([2H])([2H])N1C(=O)c2cccc(OC(F)F)c2[C@H]2C[C@@H]1c1nc3ccc(C#CC4(C)CCN(C(C)=O)CC4)cc3n12 [Example 180, (7R,14R)-11-((1-acetyl-4-methylpiperidin-4-yl)ethynyl)-1-(difluoromethoxy)-6-(methyl-d3)-6,7-dihydro-7,14-methanobenzo[f]benzo[4,5]imidazo[1,2-a][1,4]diazocin-5(14H)-one] | – | 10000 to 30000 nM

The remaining lines, values ahead:

IC50 (IC50 value) | IC50 (read-out: IC50 value) | SMILES
– | < 100 nM | [2H]C([2H])([2H])N1C(=O)c2cccc(OC(F)F)c2[C@H]2C[C@@H]1c1nc3ccc(C#CC[Si](C)(C)C)cc3n12 [Example 90, (7R,14R)-1-(difluoromethoxy)-6-(methyl-d3)-11-(3-(trimethylsilyl)prop-1-yn-1-yl)-6,7-dihydro-7,14-methanobenzo[f]benzo[4,5]imidazo[1,2-a][1,4]diazocin-5(14H)-one]
– | < 100 nM | [2H]C([2H])([2H])N1C(=O)c2cccc(OC(F)F)c2[C@H]2C[C@@H]1c1nc3ccc(C#CC4(C)CN(C(=O)C5(O)CC5)C4)cc3n12 [Example 205, (7R,14R)-1-(difluoromethoxy)-11-((1-(1-hydroxycyclopropane-1-carbonyl)-3-methylazetidin-3-yl)ethynyl)-6-(methyl-d3)-6,7-dihydro-7,14-methanobenzo[f]benzo[4,5]imidazo[1,2-a][1,4]diazocin-5(14H)-one]
– | < 100 nM | [2H]C([2H])([2H])N1C(=O)c2cccc(OC(F)F)c2[C@H]2C[C@@H]1c1nc3ccc(C#Cc4cncn4C)cc3n12 [Example 17, (7R,14R)-1-(difluoromethoxy)-6-(methyl-d3)-11-((1-methyl-1H-imidazol-5-yl)ethynyl)-6,7-dihydro-7,14-methanobenzo[f]benzo[4,5]imidazo[1,2-a][1,4]diazocin-5(14H)-one]
– | < 100 nM | [2H]C([2H])([2H])N1C(=O)c2cccc(OC(F)F)c2[C@H]2C[C@@H]1c1nc3ccc(C#CCCN4CCN(C)CC4)cc3n12 [Example 134, (7R,14R)-1-(difluoromethoxy)-6-(methyl-d3)-11-(4-(4-methylpiperazin-1-yl)but-1-yn-1-yl)-6,7-dihydro-7,14-methanobenzo[f]benzo[4,5]imidazo[1,2-a][1,4]diazocin-5(14H)-one]
– | < 100 nM | [2H]C([2H])([2H])N1C(=O)c2cccc(OC(F)F)c2[C@H]2C[C@@H]1c1nc3ccc(C#Cc4ccnn4C)cc3n12 [Example 13, (7R,14R)-1-(difluoromethoxy)-6-(methyl-d3)-11-((1-methyl-1H-pyrazol-5-yl)ethynyl)-6,7-dihydro-7,14-methanobenzo[f]benzo[4,5]imidazo[1,2-a][1,4]diazocin-5(14H)-one]
– | < 100 nM | [2H]C([2H])([2H])N1C(=O)c2cccc(OC(F)F)c2[C@H]2C[C@@H]1c1nc3ccc(C#CCCN4CC[C@H](F)C4)cc3n12 [Example 220, (7R,14R)-1-(difluoromethoxy)-11-(4-((S)-3-fluoropyrrolidin-1-yl)but-1-yn-1-yl)-6-(methyl-d3)-6,7-dihydro-7,14-methanobenzo[f]benzo[4,5]imidazo[1,2-a][1,4]diazocin-5(14H)-one]
– | < 100 nM | [2H]C([2H])([2H])N1C(=O)c2cccc(OC(F)F)c2[C@H]2C[C@@H]1c1nc3ccc(C#Cc4nnc(C)o4)cc3n12 [Example 28, (7R,14R)-1-(difluoromethoxy)-6-(methyl-d3)-11-((5-methyl-1,3,4-oxadiazol-2-yl)ethynyl)-6,7-dihydro-7,14-methanobenzo[f]benzo[4,5]imidazo[1,2-a][1,4]diazocin-5(14H)-one]
– | < 100 nM | [2H]C([2H])([2H])N1C(=O)c2cccc(OC(F)F)c2[C@H]2C[C@@H]1c1nc3ccc(C#CC4CC(C#N)C4)cc3n12 (stereo partly drawn) [Example 141, 3-(((7R,14R)-1-(difluoromethoxy)-6-(methyl-d3)-5-oxo-5,6,7,14-tetrahydro-7,14-methanobenzo[f]benzo[4,5]imidazo[1,2-a][1,4]diazocin-11-yl)ethynyl)cyclobutane-1-carbonitrile]
